Here are results for 25 molecules from EP0423524A2, “Propiophenone derivatives and their preparation and pharmaceutical use” (MARUHO Co., Ltd., priority 1989, dated 1991).

Common to all, as to assay type: in vivo
Data set [1] deals with Male Slc-ddy mice. Description: Inhibitory effect on the motor coordination (rotating rod test). Particulars: for Inhibitory effect on motor coordination Effect: 300 - 600 mg/10 ml/kg oral, 30 min, compared with eperisone hydrochloride; for Inhibitory effect on motor coordination Durability / ED50 / inhibitory effect on the motor coordination compared with eperisone hydrochloride: oral; for ED50: Mus musculus, 0.5 h, rotating rod 30 min after administration, falling off within 60 s counted as positive, 95% confidence limit in brackets, read-out: ED₅₀ values for the inhibitory effect on the motor coordination.
Protocol: Male Slc-ddy mice of 20 - 25 g (5 weeks old) were used in groups of 7 - 10. The test compounds were used dissolved or suspended in 0.5 % CMC or 0.5 % Tween 80 solution. Each test compound (300 - 600 mg/10 ml/kg) was orally administered to the mice, and after 30 min the mice were put on a 3-cm diameter rod rotating at a speed of 10 min⁻¹ in a direction opposite to the rotation direction, and the time of staying on it was measured to a maximum of 180 s. Those falling off of the rotating rod within 60 s were judged as having an inhibitory effect on the motor coordination and, with the number of cases as index, comparison was made with the reference compound (eperisone hydrochloride).
The mice were trained in advance to be able to stay on the rotating rod for more than 300 s, and those capable of staying on it for more than 250 s immediately before testing were used.

For data set [2], the system named is Male Slc-ddy mice. Briefly: Anti-nicotinic effect (survival after intravenous nicotine bitartrate). The note with it: for Anti-nicotinic effect Effect: 30 min, compared with eperisone hydrochloride.
Protocol: Experimental Method of Male Slc-ddy mice/30 - 35 g (6 weeks old) were used as test animals in groups of 7 - 10. The test compounds (100 mg/10 ml/kg) were orally administered to the mice, and after 30 min, nicotine bitartrate (3 mg/10 ml/kg) was administered intravenously, and the number of animals killed due to tonic convulsion was counted. The surviving animals were judged as having an anti-nicotinic effect, and with the number thereof as index the comparison concerning the anti-nicotinic effect was made with the reference compound (eperisone hydrochloride).
The subject of data set [3] is Male Slc-ddy mice. Description: Anti-strychnine effect (time from tonic convulsions to death after subcutaneous strychnine nitrate). Particulars: for Anti-strychnine effect Effect: 30 min, compared with eperisone hydrochloride. Here is the method:
Strychnine is known to enhance reflex stimulation, among others, of spinal cord to induce convulsions. If this effect of strychnine can be suppressed by administration of any of the above-mentioned compounds, this compound is expected to have a central muscle relaxation effect.
Male Slc-ddy mice of 25 - 30 g (5 weeks old) were used in groups of 7 - 10.
The test compounds (100 mg/10 ml/kg) were orally administered to the mice, and after 30 min, 1.5 mg/10 ml/kg of strychnine nitrate was administered subcutaneously, and the time was measured from the occurence of tonic convulsions to the death of the animals. Cases in which this time was extended to 6 min or more were judged as corresponding to an anti-strychnine effect, and with the number of such cases as index, comparison was made with the reference compound (eperisone hydrochloride). […] The ED₅₀ values (95% confidence limit) for the anti-strychnine effect were determined by the Litchfield-Wilcoxon method and are shown in Table 3.

A short description of data set [4]: Acute toxicity test. The note with it: mouse, in vivo, po, mice, observation for 7 days, Litchfield-Wilcoxon, 95% confidence limit in brackets, read-out: LD₅₀ values (50% of lethal dose). Here is the method:
Male ddy mice of 20-30 g were used as test animals in groups of 5-10. The test compounds were dissolved or suspended in 0.5 % Tween 80 aqueous solution, and orally administered to the mice. Observation was made for 7 days after administration. The LD₅₀ values (50% of lethal dose) (95% confidence limit) were determined by the Litchfield-Wilconxon method, and are shown in Table 4.

Structures can show the parent of a compound that is named as a salt.

Consider `CCc1ccc(C(=O)C(C)CN2CCN(CC(C)C(=O)c3ccc(CC)cc3)CC2)cc1.Cl.Cl` (stereo not shown) [Compound 1, N,N'-bis[2-(4-ethylbenzoyl)-propyl]-piperazine dihydrochloride], for which, in data set [1], the “Inhibitory effect on motor coordination Effect” value was found to be 0 and the “Inhibitory effect on motor coordination Durability” value is “-”.

Turning to `CCc1ccc(C(=O)C(C)Cn2ccnc2)cc1` (stereo not shown) [Compound 2, 1-(4-ethylphenyl)-3-(1H-imidazol-1-yl)-2-methylpropan-1-one], in data set [1], the “Inhibitory effect on motor coordination Effect” value was 0, the ED50 was 200 mg/kg and the “inhibitory effect on the motor coordination compared with eperisone hydrochloride” value is “stronger inhibitory effect on the motor coordination than eperisone hydrochloride”. In addition, in data set [2] (100 mg/10 ml/kg oral), the “anti-nicotinic effect compared with eperisone hydrochloride” value is on record as “stronger anti-nicotinic effect than eperisone hydrochloride” and the “Anti-nicotinic effect Effect” value is reported as “◎”. Further, the ED50 in data set [2] (Mus musculus, 0.5 h, oral, nicotine bitartrate 3 mg/10 ml/kg i.v. after 30 min, Litchfield-Wilcoxon, 95 % confidence limit in brackets, read-out: ED₅₀ values for the anti-nicotinic effect) was 26 mg/kg. Also, in data set [3] (Mus musculus, po, 0.5 h, read-out: ED₅₀ values for the anti-strychnine effect), the ED50 stood at 135 mg/kg. Also, in data set [3] (mice, 100 mg/10 ml/kg oral), the “anti-strychnine effect compared with eperisone hydrochloride” value was “stronger anti-strychnine effect than eperisone hydrochloride” and the “Anti-strychnine effect Effect” value is on record as “◎”. The LD50 at 168 h in data set [4] was determined as 218 mg/kg.

In the case of `CC(Cn1ccnc1)C(=O)c1ccc(Cl)cc1` (stereo not shown) [Compound 3, hydrochloride], in data set [1], the “Inhibitory effect on motor coordination Effect” value is 0. Further, in data set [2] (100 mg/10 ml/kg oral), the “Anti-nicotinic effect Effect” value is recorded as 0.

Consider `CCc1ccc(C(=O)C(CC)CN2CCCCC2)cc1.Cl` (stereo not shown) [Compound 4, 2-ethyl-1-(4-ethylphenyl)-3-piperidinopropan-1-one hydrochloride], for which, in data set [1], the “Inhibitory effect on motor coordination Effect” value stood at 0 and the “Inhibitory effect on motor coordination Durability” value is on record as “-”. For the same molecule, in data set [2] (100 mg/10 ml/kg oral), the “Anti-nicotinic effect Effect” value is 0.

In the case of `CCc1ccc(C(=O)C(CN2CCCCC2)C(C)C)cc1` (stereo not shown) [Compound 5, 1-(4-ethylphenyl)-2-isopropyl-3-piperidinopropan-1-one], in data set [1], the “Inhibitory effect on motor coordination Effect” value stood at 0 and the “Inhibitory effect on motor coordination Durability” value is “-”. The “Anti-nicotinic effect Effect” value in data set [2] (100 mg/10 ml/kg oral) came out at 0.

As to `CCc1ccc(C(=O)C(C)(C)CN2CCCCC2)cc1` [Compound 6, 1-(4-ethylphenyl)-2,2-dimethyl-3-piperidinopropan-1-one], the “Inhibitory effect on motor coordination Effect” value in data set [1] is “◎”. Moreover, in data set [2] (100 mg/10 ml/kg oral), the “Anti-nicotinic effect Effect” value was found to be 0.

Regarding `CCc1ccc(C(=O)C(CN2CCCCC2)c2ccccc2)cc1.Cl` (stereo not shown) [Compound 7, 1-(4-ethylphenyl)-2-phenyl-3-piperidinopropan-1-one hydrochloride], in data set [1], the “Inhibitory effect on motor coordination Effect” value amounted to 0 and the “Inhibitory effect on motor coordination Durability” value was “-”. Moreover, in data set [2] (100 mg/10 ml/kg oral), the “Anti-nicotinic effect Effect” value was 0.

As for `CC(Cn1ccnc1)C(=O)c1ccccc1` (stereo not shown) [Compound 8, 3-(1H-imidazol-1-yl)-2-methyl-1-phenyl-propan-1-one], the “Inhibitory effect on motor coordination Effect” value in data set [1] worked out at 0.

As for `CCCc1ccc(C(=O)C(C)Cn2ccnc2)cc1` (stereo not shown) [Compound 9, 3-(1H-imidazol-1-yl)-2-methyl-1-(4-n-propylphenyl)-propan-1-one], the “Inhibitory effect on motor coordination Effect” value in data set [1] is given as 0. For the same molecule, in data set [2] (100 mg/10 ml/kg oral), the “Anti-nicotinic effect Effect” value was “◎”.

`CC(Cn1ccnc1)C(=O)c1ccc(C(C)C)cc1` (stereo not shown) [Compound 10, 3-(1H-imidazol-1-yl)-1-(4-isopropylphenyl)-2-methylpropan-1-one]: the “Inhibitory effect on motor coordination Effect” value in data set [1] is listed as 0. The “Anti-nicotinic effect Effect” value in data set [2] (100 mg/10 ml/kg oral) amounted to 0.

`CC(Cn1ccnc1)C(=O)c1ccc(C(C)(C)C)cc1` (stereo not shown) [Compound 11, 1-(4-t-butylphenyl)-3-(1H-imidazol-1-yl)-2-methylpropan-1-one]: the “Inhibitory effect on motor coordination Effect” value in data set [1] was found to be 0. In addition, the “Anti-strychnine effect Effect” value in data set [3] (mice, 100 mg/10 ml/kg oral) was 0.

In the case of `CC(Cn1ccnc1)C(=O)c1ccc(-c2ccccc2)cc1` (stereo not shown) [Compound 12, 1-(4-biphenyl)-3-(1H-imidazol-1-yl)-2-methylpropan-1-one], in data set [1], the “Inhibitory effect on motor coordination Durability” value was “-”. For the same molecule, the “Anti-nicotinic effect Effect” value in data set [2] (100 mg/10 ml/kg oral) was “◎”.

Consider `Cc1ccc(C(=O)C(C)Cn2ccnc2)c(C)c1.Cl` (stereo not shown) [Compound 13, 3-(1H-imidazol-1-yl)-2-methyl-1-(2,4-dimethylphenyl)-propan-1-one hydrochloride], for which, in data set [1], the “Inhibitory effect on motor coordination Effect” value is recorded as 0 and the “Inhibitory effect on motor coordination Durability” value was “-”. The “Anti-nicotinic effect Effect” value in data set [2] (100 mg/10 ml/kg oral) is listed as “◎”.

Regarding `CC(Cn1ccnc1)C(=O)c1ccc2ccccc2c1` (stereo not shown) [Compound 15, 3-(1H-imidazol-1-yl)-2-methyl-1-(2-naphthyl)-propan-1-one], in data set [1], the “Inhibitory effect on motor coordination Effect” value is 0, the ED50 was found to be 152 mg/kg, the “Inhibitory effect on motor coordination Durability” value is reported as “-” and the “inhibitory effect on the motor coordination compared with eperisone hydrochloride” value is “stronger inhibitory effect on the motor coordination than eperisone hydrochloride”. For the same molecule, the “Anti-nicotinic effect Effect” value in data set [2] (100 mg/10 ml/kg oral) is “◎”. The “Anti-strychnine effect Effect” value in data set [3] (mice, 100 mg/10 ml/kg oral) is reported as “◎”.

For `Cc1ccc(C(=O)C(C)Cn2ccnc2)cc1` (stereo not shown) [Compound 16, 3-(1H-imidazol-1-yl)-2-methyl-1-(4-methylphenyl)-propan-1-one], the “Inhibitory effect on motor coordination Effect” value in data set [1] is “◎”. In data set [2] (100 mg/10 ml/kg oral), the “Anti-nicotinic effect Effect” value is “◎”.

Consider `CCc1ccc(C(=O)CCn2ccnc2)cc1` [Compound 17, 1-(4-ethylphenyl)-3-(1H-imidazol-1-yl)-propan-1-one], for which, in data set [1], the “Inhibitory effect on motor coordination Effect” value is on record as “○” and the “Inhibitory effect on motor coordination Durability” value was “-”. For the same molecule, the “Anti-nicotinic effect Effect” value in data set [2] (100 mg/10 ml/kg oral) is on record as “○”.

For `CCc1ccc(C(=O)C(CC)Cn2ccnc2)cc1.Cl` (stereo not shown) [Compound 18, 2-ethyl-1-(4-ethylphenyl)-3-(1H-imidazol-1-yl)-propan-1-one hydrochloride], the “Inhibitory effect on motor coordination Effect” value in data set [1] is “◎”. The “Anti-nicotinic effect Effect” value in data set [2] (100 mg/10 ml/kg oral) is on record as “◎”.

Turning to `CCc1ccc(C(=O)C(Cn2ccnc2)c2ccccc2)cc1` (stereo not shown) [Compound 19, 1-(4-ethylphenyl)-3-(1H-imidazol-1-yl)-2-phenylpropan-1-one], in data set [1], the “Inhibitory effect on motor coordination Effect” value was “◎” and the “Inhibitory effect on motor coordination Durability” value was “-”. Moreover, the “Anti-nicotinic effect Effect” value in data set [2] (100 mg/10 ml/kg oral) is recorded as “◎”.

`CC(Cn1ccnc1)C(=O)c1ccc2c(c1)Cc1ccccc1-2` (stereo not shown) [Compound 20, 1-(9H-fluoren-2-yl)-3-(1H-imidazol-1-yl)-2-methylpropan-1-one]: in data set [1], the “Inhibitory effect on motor coordination Effect” value is reported as “◎” and the “Inhibitory effect on motor coordination Durability” value is recorded as “-”. Also, the “Anti-nicotinic effect Effect” value in data set [2] (100 mg/10 ml/kg oral) was “◎”. The “Anti-strychnine effect Effect” value in data set [3] (mice, 100 mg/10 ml/kg oral) is on record as “○”.

For the molecule `CCc1ccc(C(=O)C(C)n2ccnc2)cc1.Cl` (stereo not shown) [Compound 21, 1-(4-ethylphenyl)-2-(1H-imidazol-1-yl)-propan-1-one hydrochloride], the “Inhibitory effect on motor coordination Durability” value in data set [1] is listed as “-”. In addition, in data set [2] (100 mg/10 ml/kg oral), the “Anti-nicotinic effect Effect” value is on record as “◎”.

With `CCc1ccc(C(O)C(C)Cn2ccnc2)cc1` (stereo not shown) [Compound 22, 1-(4-ethylphenyl)-3-(1H-imidazol-1-yl)-2-methylpropan-1-ol], in data set [1], the “Inhibitory effect on motor coordination Effect” value is reported as “◎” and the “inhibitory effect on the motor coordination compared with eperisone hydrochloride” value is on record as “stronger inhibitory effect on the motor coordination than eperisone hydrochloride”. In data set [2] (100 mg/10 ml/kg oral), the “Anti-nicotinic effect Effect” value is given as “◎”. Also, the “Anti-strychnine effect Effect” value in data set [3] (mice, 100 mg/10 ml/kg oral) is on record as “○”.

Take `CCc1ccc(C(=O)C(CN2CCCC2)c2ccccc2)cc1.Cl` (stereo not shown) [Compound 24, 1-(4-ethylphenyl)-2-phenyl-3-(pyrrolidin-1-yl)-propan-1-one hydrochloride]: in data set [1], the “Inhibitory effect on motor coordination Effect” value is reported as “○”. Moreover, in data set [2] (100 mg/10 ml/kg oral), the “Anti-nicotinic effect Effect” value is listed as “○”.

Turning to `CC(C)(CN1CCCC1)C(=O)c1ccc(Cl)cc1` [Compound 25, 1-(4-chlorophenyl)-2,2-dimethyl-3-(pyrrolidin-1-yl)-propan-1-one], in data set [1], the “Inhibitory effect on motor coordination Effect” value was “◎”. Also, the “Anti-nicotinic effect Effect” value in data set [2] (100 mg/10 ml/kg oral) was “○”.

For `CCc1ccc(C(=O)C(C)Cn2ccnc2C)cc1` (stereo not shown) [Compound 26, 1-(4-ethylphenyl)-2-methyl-3-(2-methyl-1H-imidazol-1-yl)-propan-1-one], in data set [1], the “Inhibitory effect on motor coordination Effect” value is given as “◎” and the “Inhibitory effect on motor coordination Durability” value is reported as “-”. In addition, the “Anti-nicotinic effect Effect” value in data set [2] (100 mg/10 ml/kg oral) is given as “◎”.

With `CCc1ccc(C(=O)C(C)Cn2cncn2)cc1` (stereo not shown) [Compound 27, 1-(4-ethylphenyl)-2-methyl-3-(1H-1,2,4-triazol-1-yl)-propan-1-one], in data set [1], the “Inhibitory effect on motor coordination Effect” value is listed as “○” and the “Inhibitory effect on motor coordination Durability” value was “-”. Moreover, the “Anti-nicotinic effect Effect” value in data set [2] (100 mg/10 ml/kg oral) was “○”.
